Laboratory results from the NIST ThermoML archive (doi:10.1016/j.tca.2016.03.002).

Columns and labels:
[1] = xn = mol fraction of the nth substance listed; settings: 100 kPa, Liquid; for viscosity: Capillary tube (Ostwald / Ubbelohde) method; for mass density: Vibrating tube method
[2] = relative permittivity at various frequencies (dimensionless); xn = mol fraction of the nth substance listed; settings: 100 kPa, Liquid, Frequency=30 MHz, Parallel plate capacitor

NC1CCCCC1 [cyclohexylamine] + CO
Settings | mass density, [1] [kg/m3] | relative permittivity, [2] | viscosity, [1] [mPa·s]
293.15 K, x2 = 0 | 866.86 | 4.65 | 2.142
293.15 K, x2 = 0.0666 | 867.932 | – | 2.16
293.15 K, x2 = 0.0702 | – | 5.34 | –
293.15 K, x2 = 0.1108 | 868.284 | – | 2.17
293.15 K, x2 = 0.1177 | – | 5.88 | –
293.15 K, x2 = 0.2006 | – | 7.01 | –
293.15 K, x2 = 0.2089 | 869.337 | – | 2.18
293.15 K, x2 = 0.3043 | 869.454 | – | 2.19
293.15 K, x2 = 0.3049 | – | 8.78 | –
293.15 K, x2 = 0.4041 | – | 10.87 | –
293.15 K, x2 = 0.4097 | 868.83 | – | 2.16
293.15 K, x2 = 0.4479 | 868.248 | – | 2.13
293.15 K, x2 = 0.493 | 867.202 | – | 2.07
293.15 K, x2 = 0.4986 | – | 13.26 | –
293.15 K, x2 = 0.5392 | – | 14.55 | –
293.15 K, x2 = 0.5478 | 865.137 | – | 1.99
293.15 K, x2 = 0.5961 | 862.688 | – | 1.89
293.15 K, x2 = 0.597 | – | 16.28 | –
293.15 K, x2 = 0.659 | 858.061 | – | 1.7
293.15 K, x2 = 0.6609 | – | 18.6 | –
293.15 K, x2 = 0.6986 | – | 19.95 | –
293.15 K, x2 = 0.7014 | 853.915 | – | 1.56
293.15 K, x2 = 0.746 | – | 21.72 | –
293.15 K, x2 = 0.798 | 841.114 | – | 1.22
293.15 K, x2 = 0.7997 | – | 23.89 | –
293.15 K, x2 = 0.8572 | – | 26.33 | –
293.15 K, x2 = 0.8985 | – | 28.32 | –
293.15 K, x2 = 0.8992 | 820.891 | – | 0.89
293.15 K, x2 = 0.949 | – | 30.74 | –
293.15 K, x2 = 0.9503 | 807.371 | – | 0.72
298.15 K, x2 = 0 | 862.315 | 4.56 | 1.908
298.15 K, x2 = 0.0666 | 863.427 | – | 1.92
298.15 K, x2 = 0.0702 | – | 5.23 | –
298.15 K, x2 = 0.1108 | 863.705 | – | 1.93
298.15 K, x2 = 0.1177 | – | 5.75 | –
298.15 K, x2 = 0.2006 | – | 6.84 | –
298.15 K, x2 = 0.2089 | 864.848 | – | 1.94
298.15 K, x2 = 0.3043 | 864.932 | – | 1.94
298.15 K, x2 = 0.3049 | – | 8.55 | –
298.15 K, x2 = 0.4041 | – | 10.58 | –
298.15 K, x2 = 0.4097 | 864.276 | – | 1.91
298.15 K, x2 = 0.4479 | 863.674 | – | 1.88
298.15 K, x2 = 0.493 | 862.605 | – | 1.83
298.15 K, x2 = 0.4986 | – | 12.88 | –
298.15 K, x2 = 0.5392 | – | 14.1 | –
298.15 K, x2 = 0.5478 | 860.518 | – | 1.76
298.15 K, x2 = 0.5961 | 858.069 | – | 1.67
298.15 K, x2 = 0.597 | – | 15.73 | –
298.15 K, x2 = 0.659 | 853.437 | – | 1.52
298.15 K, x2 = 0.6609 | – | 18.05 | –
298.15 K, x2 = 0.6986 | – | 19.34 | –
298.15 K, x2 = 0.7014 | 849.321 | – | 1.4
298.15 K, x2 = 0.746 | – | 21.14 | –
298.15 K, x2 = 0.798 | 836.513 | – | 1.11
298.15 K, x2 = 0.7997 | – | 23.16 | –
298.15 K, x2 = 0.8572 | – | 25.55 | –
298.15 K, x2 = 0.8985 | – | 27.5 | –
298.15 K, x2 = 0.8992 | 816.251 | – | 0.78
298.15 K, x2 = 0.949 | – | 29.87 | –
298.15 K, x2 = 0.9503 | 802.691 | – | 0.67
303.15 K, x2 = 0 | 857.774 | 4.47 | 1.697
303.15 K, x2 = 0.0666 | 858.919 | – | 1.71
303.15 K, x2 = 0.0702 | – | 5.13 | –
303.15 K, x2 = 0.1108 | 859.196 | – | 1.71
303.15 K, x2 = 0.1177 | – | 5.63 | –
303.15 K, x2 = 0.2006 | – | 6.68 | –
303.15 K, x2 = 0.2089 | 860.385 | – | 1.72
303.15 K, x2 = 0.3043 | 860.42 | – | 1.72
303.15 K, x2 = 0.3049 | – | 8.32 | –
303.15 K, x2 = 0.4041 | – | 10.29 | –
303.15 K, x2 = 0.4097 | 859.728 | – | 1.69
303.15 K, x2 = 0.4479 | 859.094 | – | 1.66
303.15 K, x2 = 0.4931 | 858.005 | – | 1.62
303.15 K, x2 = 0.4986 | – | 12.47 | –
303.15 K, x2 = 0.5392 | – | 13.66 | –
303.15 K, x2 = 0.5478 | 855.9 | – | 1.56
303.15 K, x2 = 0.5966 | 853.451 | – | 1.48
303.15 K, x2 = 0.597 | – | 15.28 | –
303.15 K, x2 = 0.659 | 848.818 | – | 1.35
303.15 K, x2 = 0.6609 | – | 17.5 | –
303.15 K, x2 = 0.6986 | – | 18.73 | –
303.15 K, x2 = 0.7014 | 844.723 | – | 1.26
303.15 K, x2 = 0.746 | – | 20.47 | –
303.15 K, x2 = 0.798 | 831.905 | – | 1.04
303.15 K, x2 = 0.7997 | – | 22.46 | –
303.15 K, x2 = 0.8535 | – | 24.61 | –
303.15 K, x2 = 0.8985 | – | 26.7 | –
303.15 K, x2 = 0.8992 | 811.617 | – | 0.75
303.15 K, x2 = 0.949 | – | 28.96 | –
303.15 K, x2 = 0.9503 | 798.008 | – | 0.62
